Measurements taken from ChEMBL document CHEMBL6103629 (J Med Chem, 2025).

Tests used:
[1] = target: Serine/threonine-protein kinase mTOR (Homo sapiens, UniProt P42345); test: Inhibition of mTOR (unknown origin) preincubated for 15 mins and measured after 60 mins by Z-LYTE screening
Hepatocyte [2] = test: Cytotoxicity against human primary hepatocytes isolated from YND donor at 0.1 to 10 uM incubated for 72 hrs by cytotox-glo assay; type: toxicity, cell-based; settings: dose 0.1-10 µM
JeKo-1 [3] = test: Antitumor activity against human JeKo-1 cells xenografted in female CB17 SCID mouse assessed as tumor growth inhibition at 30 mg/kg BID, po measured every 2 days for 24 days relative to control; type: functional; settings: JeKo-1, 576 h, time 24 day, read-out: TGI
[4] = Drug distribution in Sprague-Dawley rat liver at 5 mg/kg, IG administrated as single dose measured after 0.5 hrs by LC-MS/MS analysis; type: ADME, organism-based; settings: in vivo, po
NCI-H1703 [5] = test: Antitumor activity against human NCI-H1703 cells xenografted in female Balb/c nude mouse assessed as tumor growth inhibition at 40 mg/kg QD, po measured every 3 days for 28 days by vernier caliper based analysis relative to control; type: functional; settings: NCI-H1703, 672 h, time 28 day, read-out: TGI
[6] = Drug metabolism in human plasma by LC-MS/MS analysis; type: ADME, cell-free
[7] = Toxicity in female CB17 SCID mouse xenografted with human JeKo-1 cells assessed as body weight at 40 mg/kg BID, po administered as 3 days on and 4 days off schedule for 24 days; type: organism-based; settings: in vivo, 576 h, time 24 day
Cytochrome P450 2D6 = Cytochrome P450 2D6 (Homo sapiens, UniProt P10635); test: Inhibition of CYP2D6 in human liver microsomes in the presence of NADPH incubated for 60 mins by LC-MS/MS analysis; type: ADME, Microsome
Chain of Cytochrome P450 2D6 (P10635 whole entry, canonical isoform): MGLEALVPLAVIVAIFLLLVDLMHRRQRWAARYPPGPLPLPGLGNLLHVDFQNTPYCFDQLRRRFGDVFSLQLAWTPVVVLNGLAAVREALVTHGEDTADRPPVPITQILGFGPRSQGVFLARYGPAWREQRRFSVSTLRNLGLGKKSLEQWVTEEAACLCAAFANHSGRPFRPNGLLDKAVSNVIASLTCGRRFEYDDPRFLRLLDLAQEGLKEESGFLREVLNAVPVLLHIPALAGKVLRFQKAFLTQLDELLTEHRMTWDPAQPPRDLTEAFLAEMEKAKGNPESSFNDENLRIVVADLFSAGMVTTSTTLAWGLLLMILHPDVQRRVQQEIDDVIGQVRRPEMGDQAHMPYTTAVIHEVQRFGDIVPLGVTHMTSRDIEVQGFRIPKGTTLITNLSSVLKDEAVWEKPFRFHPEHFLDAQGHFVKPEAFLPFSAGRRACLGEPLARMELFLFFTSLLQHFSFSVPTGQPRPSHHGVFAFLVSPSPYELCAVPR

[8] = target: Phosphatidylinositol 4,5-bisphosphate 3-kinase catalytic subunit alpha isoform (Homo sapiens, UniProt P42336); test: Inhibition of PI3Kalpha (unknown origin) preincubated for 15 mins and measured after 60 mins by Z-LYTE screening
Chain of Phosphatidylinositol 4,5-bisphosphate 3-kinase catalytic subunit alpha isoform (P42336 whole entry, canonical isoform): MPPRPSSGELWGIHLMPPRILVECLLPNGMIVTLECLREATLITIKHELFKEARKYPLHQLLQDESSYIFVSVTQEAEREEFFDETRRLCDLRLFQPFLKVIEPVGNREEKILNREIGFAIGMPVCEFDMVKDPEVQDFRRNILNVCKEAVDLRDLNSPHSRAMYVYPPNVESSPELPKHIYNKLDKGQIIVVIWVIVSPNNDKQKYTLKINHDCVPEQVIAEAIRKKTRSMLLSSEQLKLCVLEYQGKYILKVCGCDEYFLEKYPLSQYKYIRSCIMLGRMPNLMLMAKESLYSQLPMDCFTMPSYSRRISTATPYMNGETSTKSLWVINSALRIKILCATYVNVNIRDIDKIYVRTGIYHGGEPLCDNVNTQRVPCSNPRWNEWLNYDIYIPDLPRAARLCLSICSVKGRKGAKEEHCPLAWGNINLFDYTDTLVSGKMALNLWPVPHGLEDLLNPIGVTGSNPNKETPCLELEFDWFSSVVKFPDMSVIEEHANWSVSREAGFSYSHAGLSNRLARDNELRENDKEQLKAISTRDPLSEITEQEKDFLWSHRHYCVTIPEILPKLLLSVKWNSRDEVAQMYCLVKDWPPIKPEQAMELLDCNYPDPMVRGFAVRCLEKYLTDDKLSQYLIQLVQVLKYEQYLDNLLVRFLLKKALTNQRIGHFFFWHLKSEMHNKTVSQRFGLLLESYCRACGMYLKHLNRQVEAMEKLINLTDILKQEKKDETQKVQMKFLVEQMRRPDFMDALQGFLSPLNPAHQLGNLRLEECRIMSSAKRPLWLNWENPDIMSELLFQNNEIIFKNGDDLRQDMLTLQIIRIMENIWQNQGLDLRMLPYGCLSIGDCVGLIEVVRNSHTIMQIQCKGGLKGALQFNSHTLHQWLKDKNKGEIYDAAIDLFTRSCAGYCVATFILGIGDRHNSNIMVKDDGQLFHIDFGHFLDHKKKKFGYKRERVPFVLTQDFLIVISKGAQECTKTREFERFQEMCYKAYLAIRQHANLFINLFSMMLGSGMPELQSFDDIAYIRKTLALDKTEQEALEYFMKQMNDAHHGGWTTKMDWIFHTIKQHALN

[9] = Lipophilicity, logP of compound; type: physicochemical; settings: octanol/water
[10] = Plasma protein binding in CD-1 mouse at 1 uM incubated for 5 hrs in HTD dialysis in the presence of verapamil by LC-MS/MS analysis relative to control; type: ADME, cell-free; settings: read-out: PPB (converted)
Hepatocyte [11] = test: Cytotoxicity against human primary hepatocytes isolated from DZM donor at 0.1 to 10 uM incubated for 72 hrs by cytotox-glo assay; type: toxicity, cell-based; settings: dose 0.1-10 µM
[12] = Drug distribution in Sprague-Dawley rat small intestine at 5 mg/kg, IG administrated as single dose measured after 0.5 hrs by LC-MS/MS analysis; type: ADME, organism-based; settings: in vivo, po
[13] = Drug distribution in Sprague-Dawley rat stomach at 5 mg/kg, IG administrated as single dose measured after 0.5 hrs by LC-MS/MS analysis; type: ADME, organism-based; settings: in vivo, po
LoVo [14] = test: Antitumor activity against human LoVo cells xenografted in female Balb/c nude mouse assessed as tumor growth inhibition at 60 mg/kg QD, po measured every 3 days for 25 days relative to control; type: functional; settings: 600 h, time 25 day, read-out: TGI
[15] = Inhibition of DNA-PK (unknown origin) preincubated for 15 mins and measured after 60 mins by Z-LYTE screening; design: species or system Homo sapiens
[16] = Toxicity in female Balb/c nude mouse xenografted with human NCI-H1703 cells assessed as body weight at 40 mg/kg QD, po administered as 3 days on and 4 days off schedule for 4 weeks; type: organism-based; settings: in vivo, 672 h, time 28 day
[17] = Drug metabolism in human liver cells at 2 uM incubated upto 120 mins by LC-MS/MS analysis; type: ADME, cell-based; settings: 2 h
NCI-H1703 [18] = test: Synergistic antitumor activity against human NCI-H1703 cells xenografted in female Balb/c nude mouse assessed as tumor growth inhibition co administered with Gemcitabine at 40 mg/kg QD, po administered as 3 days on and 4 days off schedule for 4 weeks relative to control; type: functional; settings: NCI-H1703, 672 h, time 28 day, read-out: TGI
[19] = Drug metabolism in Sprague-Dawley rat liver cells at 2 uM incubated upto 120 mins by LC-MS/MS analysis; type: ADME, cell-based; settings: 2 h
[20] = Toxicity in female Balb/c nude mouse xenografted with human NCI-H1703 cells assessed as body weight at 40 mg/kg QD, po measured every 3 days for 25 days at 10 to 60 mg/kg QD, po measured every 3 days for 28 days; type: organism-based; settings: in vivo, 672 h, time 28 day
[21] = Drug accumulation in female Beagle dogs at 5 mg/kg, IG measured for 7 days by LC-MS/MS analysis; type: ADME, organism-based, Canis lupus familiaris; settings: dog, in vivo, po, 168 h, time 7 day
CYP2D6 = CYP2D6 (Homo sapiens, UniProt P10635); test: Inhibition of recombinant human CYP2D6 assessed as residual activity at 1 uM in the presence of NADPH incubated for 60 mins by LC-MS/MS analysis relative to control; type: ADME; settings: read-out: Activity
Chain of CYP2D6 (P10635 whole entry): as the sequence (P10635 whole entry, canonical isoform) above

[22] = Induction of CYP1A2 mRNA expression in human primary hepatocyte isolated from DZM donor at 0.1 to 10 uM incubated for 72 hrs by real-time PCR analysis; type: ADME, cell-based; settings: hepatocytes, dose 0.1-10 µM
[23] = Induction of CYP3A4 mRNA expression in human primary hepatocyte isolated from YND donor at 0.1 to 10 uM incubated for 72 hrs by real-time PCR analysis; type: ADME, cell-based; settings: hepatocytes, dose 0.1-10 µM
CYP2C19 = CYP2C19 (Homo sapiens, UniProt P33261); test: Inhibition of recombinant human CYP2C19 assessed as residual activity at 1 uM in the presence of NADPH incubated for 60 mins by LC-MS/MS analysis relative to control; type: ADME; settings: read-out: Activity
Chain of CYP2C19 (P33261 whole entry): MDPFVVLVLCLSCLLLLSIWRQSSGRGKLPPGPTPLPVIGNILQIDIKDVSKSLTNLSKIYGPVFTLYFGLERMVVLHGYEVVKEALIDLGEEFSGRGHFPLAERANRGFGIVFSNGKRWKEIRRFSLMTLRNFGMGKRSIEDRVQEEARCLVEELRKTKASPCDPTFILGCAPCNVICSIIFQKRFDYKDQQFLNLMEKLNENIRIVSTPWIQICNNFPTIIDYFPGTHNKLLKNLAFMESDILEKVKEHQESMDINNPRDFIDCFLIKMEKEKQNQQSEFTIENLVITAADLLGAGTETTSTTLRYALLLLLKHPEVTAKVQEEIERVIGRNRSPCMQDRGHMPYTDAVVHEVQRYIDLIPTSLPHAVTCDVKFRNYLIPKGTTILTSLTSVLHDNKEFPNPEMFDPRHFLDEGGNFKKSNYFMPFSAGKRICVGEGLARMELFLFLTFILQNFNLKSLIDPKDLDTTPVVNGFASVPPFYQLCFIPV

Cytochrome P450 3A4 = Cytochrome P450 3A4 (Homo sapiens, UniProt P08684); test: Inhibition of CYP3A4 in human liver microsomes using testosterone as substrate and in presence of NADPH incubated for 60 mins by LC-MS/MS analysis; type: ADME, Microsome
Chain of Cytochrome P450 3A4 (P08684 whole entry): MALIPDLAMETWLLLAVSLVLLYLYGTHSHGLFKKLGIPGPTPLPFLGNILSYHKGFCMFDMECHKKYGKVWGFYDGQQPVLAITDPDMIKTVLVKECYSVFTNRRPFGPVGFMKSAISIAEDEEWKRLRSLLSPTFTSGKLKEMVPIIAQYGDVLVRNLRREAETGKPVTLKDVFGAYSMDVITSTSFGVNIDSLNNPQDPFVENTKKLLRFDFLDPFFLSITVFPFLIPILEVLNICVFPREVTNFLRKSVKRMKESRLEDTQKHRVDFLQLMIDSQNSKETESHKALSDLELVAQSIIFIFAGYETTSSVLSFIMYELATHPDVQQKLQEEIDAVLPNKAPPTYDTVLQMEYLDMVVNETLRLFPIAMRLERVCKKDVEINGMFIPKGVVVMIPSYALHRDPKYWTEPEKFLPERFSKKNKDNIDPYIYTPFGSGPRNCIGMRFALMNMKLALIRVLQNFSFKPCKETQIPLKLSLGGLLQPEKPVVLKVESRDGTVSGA

[24] = Drug accumulation in female Sprague-Dawley rat at 5 mg/kg, IG measured for 7 days by LC-MS/MS analysis; type: ADME, organism-based; settings: in vivo, po, 168 h, time 7 day
CYP2C8 = CYP2C8 (Homo sapiens, UniProt P10632); test: Inhibition of recombinant human CYP2C8 assessed as residual activity at 1 uM in the presence of NADPH incubated for 60 mins by LC-MS/MS analysis relative to control; type: ADME; settings: read-out: Activity
Chain of CYP2C8 (P10632 whole entry): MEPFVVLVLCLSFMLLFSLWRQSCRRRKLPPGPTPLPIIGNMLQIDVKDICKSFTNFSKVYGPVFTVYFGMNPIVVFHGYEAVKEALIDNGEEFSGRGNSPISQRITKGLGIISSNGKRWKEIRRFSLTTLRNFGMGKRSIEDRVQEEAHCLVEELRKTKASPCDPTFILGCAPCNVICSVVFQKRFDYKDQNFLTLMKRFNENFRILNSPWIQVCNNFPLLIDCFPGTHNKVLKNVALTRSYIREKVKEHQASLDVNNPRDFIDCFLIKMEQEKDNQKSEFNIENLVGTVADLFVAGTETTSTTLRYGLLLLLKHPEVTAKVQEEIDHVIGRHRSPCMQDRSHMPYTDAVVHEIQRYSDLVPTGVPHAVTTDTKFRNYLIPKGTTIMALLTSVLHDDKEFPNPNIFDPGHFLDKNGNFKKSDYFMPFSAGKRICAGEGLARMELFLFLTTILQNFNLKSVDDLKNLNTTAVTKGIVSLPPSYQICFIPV

LoVo [25] = test: Induction of apoptosis in human LoVo cells assessed as necrotic cells at 1 uM incubated for 24 hrs by Annexin-V-FITC-PI staining based flow cytometric analysis (reference value: 0.97 %); type: functional
CYP1A2 = CYP1A2 (Homo sapiens, UniProt P05177); test: Inhibition of recombinant human CYP1A2 assessed as residual activity at 1 uM in the presence of NADPH incubated for 60 mins by LC-MS/MS analysis relative to control; type: ADME; settings: read-out: Activity
Chain of CYP1A2 (P05177 whole entry): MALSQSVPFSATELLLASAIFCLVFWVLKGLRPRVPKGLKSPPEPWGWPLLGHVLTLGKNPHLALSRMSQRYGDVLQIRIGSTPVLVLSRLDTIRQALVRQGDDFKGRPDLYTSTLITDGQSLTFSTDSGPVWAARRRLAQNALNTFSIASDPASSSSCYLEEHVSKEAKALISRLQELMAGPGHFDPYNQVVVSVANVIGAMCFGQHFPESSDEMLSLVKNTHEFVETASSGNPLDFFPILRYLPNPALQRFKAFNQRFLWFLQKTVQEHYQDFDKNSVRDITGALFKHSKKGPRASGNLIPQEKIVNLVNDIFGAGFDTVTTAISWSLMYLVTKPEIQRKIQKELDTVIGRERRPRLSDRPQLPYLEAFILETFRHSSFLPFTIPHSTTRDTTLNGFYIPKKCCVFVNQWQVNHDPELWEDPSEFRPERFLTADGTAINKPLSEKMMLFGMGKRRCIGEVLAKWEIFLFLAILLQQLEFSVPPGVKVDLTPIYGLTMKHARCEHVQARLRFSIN

[26] = Induction of CYP1A2 mRNA expression in human primary hepatocyte isolated from RAS donor at 0.1 to 10 uM incubated for 72 hrs by real-time PCR analysis; type: ADME, cell-based; settings: hepatocytes, dose 0.1-10 µM
JeKo-1 [27] = test: Antitumor activity against human JeKo-1 cells xenografted in female CB17 SCID mouse assessed as tumor growth inhibition at 40 mg/kg BID, po administered as 3 days on and 4 days off schedule for 24 days relative to control; type: functional; settings: JeKo-1, 576 h, time 24 day, read-out: TGI
[28] = Drug metabolism in CD-1 mouse plasma by LC-MS/MS analysis; type: ADME, cell-free; settings: 5 h, 1 µM

With `Cc1nn(-c2cccnc2)c(C)c1-c1cc(N2CC3CCC(C2)O3)nc2c(-c3ccn[nH]3)cnn12.O=C(O)/C=C/C(=O)O` the IC50 [1] was 1.82 µM, the Activity (Hepatocyte [2]) was “Non-toxic” and the inhibition in vivo at 30 mg/kg (JeKo-1 [3]) was 96.4%. The Drug uptake [4] was “Active”, the inhibition in vivo at 40 mg/kg (NCI-H1703 [5]) was 73.3% and the Drug metabolism [6] was “metabolite_notdetected”. The Activity [7] was “Non-toxic”, the IC50 (Cytochrome P450 2D6) was over 100 µM and the IC50 [8] was 3.58 µM. The logP [9] was 0.7, the fraction unbound at 5 h, 1 µM [10] was 0.361 and the Activity (Hepatocyte [11]) was “Non-toxic”. The Drug uptake [12] was “Active”, the Drug uptake [13] was “Active” and the inhibition in vivo at 60 mg/kg (LoVo [14]) was 67.4%. The IC50 [15] was 0.24 µM, the Activity [16] was “Non-toxic” and the Drug metabolism [17] was “metabolite_detected”. For the same molecule, the inhibition in vivo at 40 mg/kg (NCI-H1703 [18]) was 92.9%, the Drug metabolism [19] was “metabolite_detected” and the Activity [20] was “Toxic”. For the same molecule, the Drug uptake [21] was “Active”, the activity at 1 h, 1 µM (CYP2D6) was 101% and the Activity [22] was “Not_active”. The Activity [23] was “Active”, the activity at 1 h, 1 µM (CYP2C19) was 109% and the IC50 (Cytochrome P450 3A4) was 41.5 µM. The Drug uptake [24] was “Active”, the activity at 1 h, 1 µM (CYP2C8) was 16.3% and the Activity (LoVo [25]) was 0.8%. The activity at 1 h, 1 µM (CYP1A2) was 105%, the Activity [26] was “Not_active” and the inhibition in vivo at 40 mg/kg (JeKo-1 [27]) was 90.6%. For the same molecule, the Drug metabolism [28] was “metabolite_notdetected”.
